Molecular target: T1, CETP (Homo sapiens, UniProt P11597)
T1 construct: from tissue; host or cells: plasma from a healthy volunteer (diluted to 0.64%)
T1 sequence (P11597 18-493): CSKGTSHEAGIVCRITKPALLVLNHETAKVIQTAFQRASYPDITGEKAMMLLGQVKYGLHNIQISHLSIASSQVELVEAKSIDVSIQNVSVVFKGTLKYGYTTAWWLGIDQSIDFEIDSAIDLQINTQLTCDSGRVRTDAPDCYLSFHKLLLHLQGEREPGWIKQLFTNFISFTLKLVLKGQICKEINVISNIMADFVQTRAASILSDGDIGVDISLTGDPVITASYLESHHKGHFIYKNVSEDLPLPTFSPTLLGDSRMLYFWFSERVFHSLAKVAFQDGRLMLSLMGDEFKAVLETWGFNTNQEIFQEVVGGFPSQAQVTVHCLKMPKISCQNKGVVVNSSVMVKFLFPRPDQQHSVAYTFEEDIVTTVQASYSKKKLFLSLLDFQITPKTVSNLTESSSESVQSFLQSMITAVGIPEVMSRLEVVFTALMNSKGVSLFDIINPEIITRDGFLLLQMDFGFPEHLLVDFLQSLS
Experiment: Inhibitory activity against CETP in vitro (fluorescent BODIPY-CE transfer from donor to acceptor microemulsion in diluted human plasma)
Type: biochemical
Conditions: plasma from a healthy volunteer diluted to 0.64%; preincubation with test solution 37° C. 24 hours; incubation with donor/acceptor microemulsion 37° C. 3 hours; fluorescence Ex.550 nm/Em.600 nm
Method: The inhibitory activity of the compounds of the present invention against CETP was tested in this experiment.
A solution of 1-Palmitoyl-2-oleoyl-sn-glycero-3-phosphocholine (3.5 mg), cholesteryl oleate (3 mg) and triolein (0.7 mg) in chloroform was mixed and lipid was air-dried under nitrogen gas to remove solvent. Dioxane (0.25 ml) was then added and the mixture was stirred for dissolution. The resultant lipid solution (0.2 ml) was slowly injected under the surface of Tris-saline-EDTA(TSE) buffer solution [10 mM Tris/HCl (pH 7.4), 0.15 M NaCl, 2 mM EDTA] (10 ml) with Hamilton syringe, while sonicating in ice-bath. After 1-hour-sonication in ice-bath, the solution was stored at 4° C.
A solution of egg PC (phosphatidylcholine) (0.33 mg) and BODIPY-CE (0.62 mg) in chloroform was mixed. After removing solvent by air-drying lipid under nitrogen gas, TSE buffer solution (3 ml) was added and the solution was sonicated in ice-bath. This solution was filtered to sterilize through 0.22 μm filter and stored at 4° C.
A test solution was prepared using dimethyl sulfoxide as a solvent. Plasma from a healthy volunteer was diluted to 0.64% with TSE buffer, and to the resultant plasma solution (187 μl) was added a test solution (3 μl) or the solvent alone followed by incubation at 37° C. for 24 hours. After addition of TSE buffer solution (10 μl) containing 5% donor microemulsion and 5% acceptor microemulsion, the mixture was incubated at 37° C. for 3 hours. Before and after the incubation, the fluorescence intensity was measured at Ex.550 nm/Em.600 nm. CETP activity was defined as the difference between the measurements obtained before incubation and after incubation. The decreasing rate of the difference in the sample was defined as the inhibition rate of CETP activity. IC50 for each sample was calculated from the inhibition rate of CETP activity.

| IC50 [pM] | SMILES |
| --- | --- |
| 390 | CCOC(=O)N1c2ccc(OC)nc2[C@@H](N(Cc2cc(C(F)(F)F)cc(C(F)(F)F)c2)c2ncc(N3CCOCC3)cn2)C[C@H]1CC [Example 22] |
| 110 | CCOC(=O)N1c2ccc(OC)nc2[C@@H](N(Cc2cc(C(F)(F)F)cc(C(F)(F)F)c2)c2ncc(OCCS(C)(=O)=O)cn2)C[C@H]1CC [Example 116] |
| 1900 | CCOC(=O)N1c2ccc(OC)nc2[C@@H](N(Cc2cc(C(F)(F)F)cc(C(F)(F)F)c2)c2ncc(OCCC(=O)O)cn2)C[C@H]1CC [Example 269, (2R,4S)-4-{[3,5-bis(trifluoromethyl)benzyl]-[5-(2-carboxyethoxy)pyrimidin-2-yl]}amino-2-ethyl-6-methoxy-3,4-dihydro-2H-[1,5]naphthyridine-1-carboxylic acid ethyl ester] |
| 400 | CCOC(=O)N1c2ccc(N(C)C)nc2[C@@H](N(Cc2cc(C(F)(F)F)cc(C(F)(F)F)c2)c2ncc(N3CCN(C(C)=O)CC3)cn2)C[C@H]1CC [Example 337, (2R,4S)-4-{[5-(4-acetylpiperazin-1-yl)pyrimidin-2-yl]-[3,5-bis(trifluoromethyl)-benzyl]}amino-6-dimethylamino-2-ethyl-3,4-dihydro-2H-[1,5]naphthyridine-1-carboxylic acid ethyl ester] |
| 980 | CCC1CC(N(Cc2cc(C(F)(F)F)cc(C(F)(F)F)c2)c2ncc(CCC(=O)O)cn2)c2nc(OC)ccc2N1C(=O)OCC(F)(F)F (stereo not shown) [Example 356] |
| 4600 | CCOC(=O)N1c2ccc(OC)nc2[C@@H](N(Cc2cc(C(F)(F)F)cc(C(F)(F)F)c2)c2ccc(N3CCC(C(=O)O)CC3)cn2)C[C@H]1CC [Example 383] |
| 830 | CC[C@@H]1C[C@H](N(Cc2cc(C(F)(F)F)cc(C(F)(F)F)c2)c2ncc(N3CCOCC3)cn2)c2nc(OC)ccc2N1C(=O)OCC(C)(C)C(=O)O [Example 409] |

Source: US7781443B2, “Tetrahydronaphthyridine derivatives and a process for preparing the same” (Mitsubishi Tanabe Pharma Corporation, priority 2004, dated 2010)
